{"source": "patent US20050261472A1", "about": "“Binding moieties for fibrin” (Dyax Corp., priority 1999, published 2005)", "note": "Bridge positions count the residues as written; N and C are the ends. Square brackets hold non-standard residues; d marks the D form. Peptide text beside a SMILES is read from it. hSer = N[C@@H](CCO)C(=O)O", "data": [{"biological_target": "T1, DD(E) (Homo sapiens, UniProt P02671+P02675+P02679)", "T1 construct": "host or cells: purchased fibrinogen clotted with thrombin, digested with plasmin, then purified by ammonium sulfate cuts and Sephacryl S200", "T1 sequence (P02671 130-216)": "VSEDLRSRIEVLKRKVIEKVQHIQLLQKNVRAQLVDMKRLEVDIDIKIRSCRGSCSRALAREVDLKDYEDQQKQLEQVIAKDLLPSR", "T1 sequence (P02675 164-491)": "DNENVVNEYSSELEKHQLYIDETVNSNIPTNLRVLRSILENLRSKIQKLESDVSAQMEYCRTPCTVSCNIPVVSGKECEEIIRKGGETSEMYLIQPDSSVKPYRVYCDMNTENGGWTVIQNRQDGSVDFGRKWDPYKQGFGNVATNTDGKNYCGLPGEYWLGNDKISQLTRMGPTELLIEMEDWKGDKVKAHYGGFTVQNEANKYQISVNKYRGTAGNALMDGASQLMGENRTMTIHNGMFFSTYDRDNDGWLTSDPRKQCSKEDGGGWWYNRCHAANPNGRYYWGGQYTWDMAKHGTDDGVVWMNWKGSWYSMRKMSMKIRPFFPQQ", "T1 sequence (P02679 114-432)": "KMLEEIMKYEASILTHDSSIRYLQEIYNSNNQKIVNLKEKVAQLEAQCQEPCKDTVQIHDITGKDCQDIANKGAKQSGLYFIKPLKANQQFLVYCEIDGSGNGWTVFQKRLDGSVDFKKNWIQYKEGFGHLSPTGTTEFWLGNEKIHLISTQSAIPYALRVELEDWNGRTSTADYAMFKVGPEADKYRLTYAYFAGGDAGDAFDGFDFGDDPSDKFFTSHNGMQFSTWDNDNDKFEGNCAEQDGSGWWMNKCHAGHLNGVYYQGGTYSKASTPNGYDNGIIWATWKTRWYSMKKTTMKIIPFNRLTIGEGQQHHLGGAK", "T1 sequence (P02671 36-97)": "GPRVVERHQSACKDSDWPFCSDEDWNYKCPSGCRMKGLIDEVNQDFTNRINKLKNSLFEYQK", "T1 sequence (P02675 45-152)": "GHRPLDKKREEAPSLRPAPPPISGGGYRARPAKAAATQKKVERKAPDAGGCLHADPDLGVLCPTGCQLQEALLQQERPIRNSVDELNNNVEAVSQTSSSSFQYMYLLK", "T1 sequence (P02679 27-88)": "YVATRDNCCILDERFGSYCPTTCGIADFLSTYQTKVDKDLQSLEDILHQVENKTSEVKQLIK", "test": "dissociation constant against fibrin-derived polypeptide DD(E)", "format": "binding", "details": "cyclic peptides of Table 12; unit inferred; read-out: Kd against DD(E)", "experimental": "(§1) The soluble fibrin-derived polypeptide DD(E) was prepared following a modification of a published method (Moskoitz and Budzynksi, Biochemistry, 33: 12937-12944 (1994) and references therein). Fibrinogen containing a Factor XIII trace impurity (1 g, Grade L; purchased from American Diagnostica) was dissolved in TBS buffer and dialyzed overnight against TBS containing 5 mM citrate. The fibrinogen concentration was adjusted to 3.0 mg/ml and CaCl2 was added to a concentration of 10 mM. Clotting of the fibrinogen was initiated by the addition of thrombin to 0.5 U/ml and the clot was incubated for 3 hours at 37° C. The clot was cut up with a spatula to release water and to concentrate the clot. The clot pieces were washed twice with TBS.Ca buffer (TBS containing 2 mM CaCl2) and were centrifuged at 4,000×g to compact the clots between washes. The clot material was resuspended in 250 ml TBS containing 25 mM CaCl2 and 2 K.I.U. plasmin per mg fibrin. The clots were digested overnight at 20° C. Undigested clot was removed by pipette, and the supernatant was shaken with 10 ml of Lysine Sepharose (Pharmacia) for 30 minutes and filtered to remove the resin. Aprotinin was added to the filtrate to a concentration of 500 U/μL. Ammonium Sulfate was added to 30% saturation and the precipitated protein was removed by centrifugation. More ammonium sulfate was added to the supernatant to a final concentration of 50% saturation, and the precipitated protein was concentrated by centrifugation. The pellets, containing DD(E), were resuspended in a small volume of buffer (50 mM Tris, 150 mM NaCl, 2 mM CaCl2) (<10 ml) and chromatographed on a Sephacryl S200 (Pharmacia) size exclusion column (5×100 cm) in the same buffer. Fractions of protein eluted from the column were assayed by SDS-PAGE for DD(E). DD(E) contains subunits of 55 kD (Fragment E) and 190 kD (Fragment DD). […]\n(§2) Dissociation constants were determined against DD(E) as described above.", "units": {"Kd": "µM"}, "values": [{"compound": "side-chain-to-side-chain cyclic peptide bearing a central Tyr-Tyr-Gly-Thr moiety [(III)]", "Kd": 179}, {"compound": "C[C@@H](O)[C@@H]1NC(=O)CNC(=O)[C@H](Cc2ccc(O)cc2)NC(=O)[C@H](Cc2ccc(O)cc2)NC(=O)[C@H](CC(=O)O)NC(=O)CNC(=O)CNC1=O", "note": "[(II)] (cyclo(GDYYGTG))", "Kd": "> 500"}]}, {"biological_target": "T1, DD(E)", "test": "dissociation constant against fibrin-derived polypeptide DD(E)", "format": "binding", "details": "read-out: Kd DD(E)", "experimental": "as §1, §2", "units": {"Kd": "µM"}, "values": [{"compound": "CC(C)C[C@H](NC(=O)[C@@H]1CSSC[C@H](NC(=O)[C@@H]2CCCN2C(=O)[C@@H](N)CC(C)C)C(=O)N[C@@H](CC(=O)O)C(=O)N[C@@H](Cc2ccc(O)cc2)C(=O)N[C@@H](Cc2ccc(O)cc2)C(=O)NCC(=O)N[C@@H](CN)C(=O)N1)C(=O)N[C@@H](CC(=O)O)C(N)=O", "note": "[SEQ ID NO: 49, LPCDYYGDprCLD]", "Kd": "> 500"}, {"compound": "CC[C@H](C)[C@H](NC(=O)[C@H](Cc1c[nH]c2ccccc12)NC(=O)[C@@H]1CSSC[C@H](NC(=O)[C@H](CCC(=O)O)NC(=O)[C@@H](N)Cc2c[nH]c3ccccc23)C(=O)N2CCC[C@H]2C(=O)N[C@@H](Cc2ccc(O)cc2)C(=O)NCC(=O)N[C@@H](CC(C)C)C(=O)N1)C(N)=O", "note": "[SEQ ID NO: 63, WECPYGLCWI] (H-WECPYGLCWI-NH2; disulfide 3-8; N-terminus and C-terminus assumed)", "Kd": 3.87}, {"compound": "CC(C)C[C@H](NC(=O)[C@@H]1CSSC[C@H](NC(=O)[C@@H]2CCCN2C(=O)[C@@H](N)CC(C)C)C(=O)N[C@@H](CC(=O)O)C(=O)N[C@@H](Cc2ccc(O)cc2)C(=O)N[C@@H](Cc2ccc(O)cc2)C(=O)NCC(=O)N[C@@H](CO)C(=O)N1)C(=O)N[C@@H](CC(=O)O)C(N)=O", "note": "[SEQ ID NO: 48, LPCDYYGSCLD] (H-LPCDYYGSCLD-NH2; disulfide 3-9)", "Kd": 26}, {"compound": "H-DYYGT-NH2 [compound 35]", "Kd": "> 100"}, {"compound": "CC[C@H](C)[C@H](NC(=O)[C@H](Cc1c[nH]cn1)NC(=O)[C@@H]1CSSC[C@H](NC(=O)[C@H](Cc2c[nH]cn2)NC(=O)[C@H](Cc2ccccc2)NC(=O)CN)C(=O)N2CCC[C@H]2C(=O)N[C@@H](Cc2ccc(O)cc2)C(=O)N[C@@H](CC(=O)O)C(=O)N[C@@H](CC(C)C)C(=O)N1)C(=O)N[C@@H](CC(C)C)C(N)=O", "note": "[SEQ ID NO: 57, GFHCPYDLCHIL] (H-GFHCPYDLCHIL-NH2; disulfide 4-9 (inferred); N-terminus and C-terminus assumed)", "Kd": 6.7}, {"compound": "CC(C)C[C@H](NC(=O)[C@@H]1CSSC[C@H](NC(=O)[C@@H]2CCCN2C(=O)[C@@H](N)CC(C)C)C(=O)N[C@@H](CC(=O)O)C(=O)N[C@@H](Cc2ccc(O)cc2)C(=O)N[C@@H](Cc2ccc(O)cc2)C(=O)NCC(=O)N[C@@H](CCO)C(=O)N1)C(=O)N[C@@H](CC(=O)O)C(N)=O", "note": "[SEQ ID NO: 50, LPCDYYGHseCLD] (H-LPCDYYG[hSer]CLD-NH2; disulfide 3-9)", "Kd": "> 500"}, {"compound": "CC[C@H](C)[C@H](NC(=O)[C@H](Cc1c[nH]c2ccccc12)NC(=O)[C@@H]1CSSC[C@H](NC(=O)[C@H](CCC(=O)O)NC(=O)[C@@H](N)Cc2c[nH]c3ccccc23)C(=O)N2CCC[C@H]2C(=O)N[C@@H](Cc2ccc(O)cc2)C(=O)NCC(=O)N[C@@H](CC(C)C)C(=O)N1)C(=O)N[C@@H](CCC(N)=O)C(N)=O", "note": "[SEQ ID NO: 61, WECPYGLCWIQ] (H-WECPYGLCWIQ-NH2; disulfide 3-8)", "Kd": 0.94}, {"compound": "CC(C)C[C@H](N)C(=O)N1CCC[C@H]1C(=O)N[C@H]1CSSC[C@@H](C(=O)N[C@@H](C)C(=O)N[C@@H](CC(=O)O)C(N)=O)NC(=O)[C@H]([C@@H](C)O)NC(=O)CNC(=O)[C@H](Cc2ccc(O)cc2)NC(=O)[C@H](Cc2ccc(O)cc2)NC(=O)[C@H](CC(=O)O)NC1=O", "note": "[SEQ ID NO: 47, LPCDYYGTCAD] (H-LPCDYYGTCAD-NH2; disulfide 3-9)", "Kd": 10.1}, {"compound": "CC[C@H](C)[C@H](NC(=O)[C@H](Cc1c[nH]cn1)NC(=O)[C@@H]1CSSC[C@H](NC(=O)[C@H](Cc2c[nH]cn2)NC(=O)[C@@H](N)Cc2ccccc2)C(=O)N2CCC[C@H]2C(=O)N[C@@H](Cc2ccc(O)cc2)C(=O)N[C@@H](CC(=O)O)C(=O)N[C@@H](CC(C)C)C(=O)N1)C(N)=O", "note": "[SEQ ID NO: 60, FHCPYDLCHI] (H-FHCPYDLCHI-NH2; disulfide 3-8; N-terminus and C-terminus assumed)", "Kd": 2}, {"compound": "C[C@@H](O)[C@@H]1NC(=O)CNC(=O)[C@H](Cc2ccc(O)cc2)NC(=O)[C@H](Cc2ccc(O)cc2)NC(=O)[C@H](CC(=O)O)NC(=O)[C@@H](NC(=O)[C@@H]2CCCN2C(=O)[C@@H](N)CCCNC(=N)N)CSSC[C@@H](C(=O)N[C@@H](Cc2ccccc2)C(=O)N[C@@H](CC(=O)O)C(N)=O)NC1=O", "note": "[SEQ ID NO: 8, RPCDYYGTCFD] (H-RPCDYYGTCFD-NH2; disulfide 3-9)", "Kd": 3.4}, {"compound": "CC(C)C[C@H](NC(=O)[C@@H]1CSSC[C@H](NC(=O)[C@@H]2CCCN2C(=O)[C@@H](N)CCCNC(=N)N)C(=O)N[C@@H](CC(N)=O)C(=O)N[C@@H](Cc2ccc(O)cc2)C(=O)N[C@@H](Cc2ccc(O)cc2)C(=O)NCC(=O)N[C@@H]([C@@H](C)O)C(=O)N1)C(=O)N[C@@H](Cc1c[nH]cn1)C(N)=O", "note": "[SEQ ID NO: 16, RPCNYYGTCLH] (H-RPCNYYGTCLH-NH2; disulfide 3-9)", "Kd": 4}, {"compound": "CC(C)C[C@H](NC(=O)[C@@H]1CSSC[C@H](NC(=O)[C@@H]2CCCN2)C(=O)N[C@@H](CC(=O)O)C(=O)N[C@@H](Cc2ccc(O)cc2)C(=O)N[C@@H](Cc2ccc(O)cc2)C(=O)NCC(=O)N[C@@H]([C@@H](C)O)C(=O)N1)C(N)=O", "note": "[compound 32] (H-PCDYYGTCL-NH2; disulfide 2-8)", "Kd": 50}, {"compound": "CC[C@H](C)[C@H](NC(=O)[C@H](Cc1c[nH]cn1)NC(=O)[C@@H]1CSSC[C@H](NC(=O)[C@@H](N)Cc2c[nH]cn2)C(=O)N2CCC[C@H]2C(=O)N[C@@H](Cc2ccc(O)cc2)C(=O)N[C@@H](CC(=O)O)C(=O)N[C@@H](CC(C)C)C(=O)N1)C(=O)N[C@@H](CC(C)C)C(N)=O", "note": "[SEQ ID NO: 59, HCPYDLCHIL] (H-HCPYDLCHIL-NH2; disulfide 2-7)", "Kd": 3.8}, {"compound": "CC(C)C[C@H](NC(=O)[C@@H]1CSSC[C@H](N)C(=O)N[C@@H](CC(=O)O)C(=O)N[C@@H](Cc2ccc(O)cc2)C(=O)N[C@@H](Cc2ccc(O)cc2)C(=O)NCC(=O)N[C@@H]([C@@H](C)O)C(=O)N1)C(N)=O", "note": "[compound 33] (H-CDYYGTCL-NH2; disulfide 1-7)", "Kd": 22}, {"compound": "CC(C)C[C@H](NC(=O)[C@@H]1CSSC[C@H](NC(=O)[C@@H]2CCCN2C(=O)[C@@H](N)CC(C)C)C(=O)N[C@@H](CC(=O)O)C(=O)N[C@@H](Cc2ccc(O)cc2)C(=O)N[C@@H](Cc2ccc(O)cc2)C(=O)N[C@@H](C)C(=O)N[C@@H]([C@@H](C)O)C(=O)N1)C(=O)N[C@@H](CC(=O)O)C(N)=O", "note": "[SEQ ID NO: 45, LPCDYYATCLD]", "Kd": 12.3}, {"compound": "CC(C)C[C@H](NC(=O)[C@@H]1CSSC[C@H](NC(=O)[C@@H]2CCCN2C(=O)[C@@H](N)CC(C)C)C(=O)N[C@@H](CO)C(=O)N[C@@H](Cc2ccc(O)cc2)C(=O)N[C@@H](Cc2ccc(O)cc2)C(=O)NCC(=O)N[C@@H]([C@@H](C)O)C(=O)N1)C(=O)N[C@@H](Cc1c[nH]cn1)C(N)=O", "note": "[SEQ ID NO: 12, LPCSYYGTCLH] (H-LPCSYYGTCLH-NH2; disulfide 3-9)", "Kd": 9.8}]}, {"biological_target": "T1, DD(E)", "test": "dissociation constant against fibrin-derived polypeptide DD(E)", "format": "binding", "details": "sequences of phage isolates from TN10-9 and TN6-6 libraries (Table 5); read-out: Kd DD(E)", "experimental": "as §1, §2", "units": {"Kd": "µM"}, "values": [{"compound": "QWECPYGLCWIQ [compound 22]", "Kd": 0.74}, {"compound": "RFLCYDSYYHWWCSHH [compound 19]", "Kd": "~10"}, {"compound": "NHGCYNSYGVPYCDYS [compound 18]", "Kd": 2.7}, {"compound": "WFHCPYDLCHIL [compound 21]", "Kd": 1.4}]}]}
